# How the values were obtained:
# Test in all cases: KinomeScan profiling
# Format in all cases: binding
# [1] = molecular target: CDK7 (Homo sapiens, UniProt P50613); settings: CDK7, 1 μM; read-out: % control
# In short: (§1)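 Normalised RLU (% control; DMSO 100%, positive control 0%) was measured for compounds dosed at 1 μM over 468 kinases, active cut-off <35%.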
# [2] = molecular target: T1, CDKL5 (Homo sapiens, UniProt O76039); settings: CDKL5, 1 μM; read-out: % control
# T1 sequence (O76039 1-960): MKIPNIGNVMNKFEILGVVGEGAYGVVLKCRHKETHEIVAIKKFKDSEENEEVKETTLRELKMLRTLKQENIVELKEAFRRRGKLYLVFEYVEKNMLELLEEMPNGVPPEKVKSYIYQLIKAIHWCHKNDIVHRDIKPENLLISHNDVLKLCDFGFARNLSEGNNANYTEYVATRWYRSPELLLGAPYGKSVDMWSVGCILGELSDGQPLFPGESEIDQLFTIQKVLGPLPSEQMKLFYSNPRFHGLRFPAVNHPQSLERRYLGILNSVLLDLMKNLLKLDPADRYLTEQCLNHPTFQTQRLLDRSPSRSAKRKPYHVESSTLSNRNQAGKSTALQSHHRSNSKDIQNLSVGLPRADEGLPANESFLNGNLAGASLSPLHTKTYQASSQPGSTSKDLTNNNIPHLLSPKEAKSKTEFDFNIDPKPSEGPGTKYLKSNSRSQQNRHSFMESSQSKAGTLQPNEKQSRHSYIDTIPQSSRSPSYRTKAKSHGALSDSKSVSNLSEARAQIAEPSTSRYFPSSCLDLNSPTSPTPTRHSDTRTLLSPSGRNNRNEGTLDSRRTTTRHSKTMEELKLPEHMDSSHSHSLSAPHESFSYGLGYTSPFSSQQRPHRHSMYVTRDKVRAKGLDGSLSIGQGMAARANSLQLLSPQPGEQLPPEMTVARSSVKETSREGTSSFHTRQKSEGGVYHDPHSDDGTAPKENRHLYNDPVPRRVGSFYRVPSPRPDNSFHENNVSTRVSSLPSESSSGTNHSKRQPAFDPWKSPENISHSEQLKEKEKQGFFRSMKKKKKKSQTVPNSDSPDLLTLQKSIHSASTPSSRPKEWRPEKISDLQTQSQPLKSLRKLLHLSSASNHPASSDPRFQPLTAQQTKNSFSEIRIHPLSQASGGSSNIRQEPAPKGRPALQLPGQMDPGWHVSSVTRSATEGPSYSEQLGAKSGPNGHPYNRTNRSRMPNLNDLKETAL
# In short: as §1
# [3] = molecular target: T2, DYRK2 (Homo sapiens, UniProt Q92630); settings: DYRK2, 1 μM; read-out: % control
# T2 sequence (Q92630 1-601): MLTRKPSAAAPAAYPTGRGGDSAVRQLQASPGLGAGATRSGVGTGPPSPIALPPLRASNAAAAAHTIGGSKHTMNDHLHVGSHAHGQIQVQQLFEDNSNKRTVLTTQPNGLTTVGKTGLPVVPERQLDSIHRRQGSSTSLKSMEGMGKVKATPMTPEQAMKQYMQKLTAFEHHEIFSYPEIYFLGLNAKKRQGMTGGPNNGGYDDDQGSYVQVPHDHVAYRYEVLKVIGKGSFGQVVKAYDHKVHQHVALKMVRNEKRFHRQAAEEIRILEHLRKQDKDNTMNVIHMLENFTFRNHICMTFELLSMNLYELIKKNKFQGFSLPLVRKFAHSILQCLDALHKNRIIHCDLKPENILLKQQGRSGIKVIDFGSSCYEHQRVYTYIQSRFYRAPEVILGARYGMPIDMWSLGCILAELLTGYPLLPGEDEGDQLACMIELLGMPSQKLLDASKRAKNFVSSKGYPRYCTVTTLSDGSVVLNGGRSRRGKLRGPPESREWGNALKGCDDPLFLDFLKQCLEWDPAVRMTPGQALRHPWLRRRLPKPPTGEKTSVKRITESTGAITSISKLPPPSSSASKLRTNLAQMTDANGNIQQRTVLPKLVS
# In short: as §1
# [4] = molecular target: FLT1 (Homo sapiens, UniProt P17948); settings: FLT1, 1 μM; read-out: % control
# In short: as §1
# [5] = molecular target: MAST1 (Homo sapiens, UniProt Q9Y2H9); settings: MAST1, 1 μM; read-out: % control
# MAST1, sequence (Q9Y2H9 whole entry): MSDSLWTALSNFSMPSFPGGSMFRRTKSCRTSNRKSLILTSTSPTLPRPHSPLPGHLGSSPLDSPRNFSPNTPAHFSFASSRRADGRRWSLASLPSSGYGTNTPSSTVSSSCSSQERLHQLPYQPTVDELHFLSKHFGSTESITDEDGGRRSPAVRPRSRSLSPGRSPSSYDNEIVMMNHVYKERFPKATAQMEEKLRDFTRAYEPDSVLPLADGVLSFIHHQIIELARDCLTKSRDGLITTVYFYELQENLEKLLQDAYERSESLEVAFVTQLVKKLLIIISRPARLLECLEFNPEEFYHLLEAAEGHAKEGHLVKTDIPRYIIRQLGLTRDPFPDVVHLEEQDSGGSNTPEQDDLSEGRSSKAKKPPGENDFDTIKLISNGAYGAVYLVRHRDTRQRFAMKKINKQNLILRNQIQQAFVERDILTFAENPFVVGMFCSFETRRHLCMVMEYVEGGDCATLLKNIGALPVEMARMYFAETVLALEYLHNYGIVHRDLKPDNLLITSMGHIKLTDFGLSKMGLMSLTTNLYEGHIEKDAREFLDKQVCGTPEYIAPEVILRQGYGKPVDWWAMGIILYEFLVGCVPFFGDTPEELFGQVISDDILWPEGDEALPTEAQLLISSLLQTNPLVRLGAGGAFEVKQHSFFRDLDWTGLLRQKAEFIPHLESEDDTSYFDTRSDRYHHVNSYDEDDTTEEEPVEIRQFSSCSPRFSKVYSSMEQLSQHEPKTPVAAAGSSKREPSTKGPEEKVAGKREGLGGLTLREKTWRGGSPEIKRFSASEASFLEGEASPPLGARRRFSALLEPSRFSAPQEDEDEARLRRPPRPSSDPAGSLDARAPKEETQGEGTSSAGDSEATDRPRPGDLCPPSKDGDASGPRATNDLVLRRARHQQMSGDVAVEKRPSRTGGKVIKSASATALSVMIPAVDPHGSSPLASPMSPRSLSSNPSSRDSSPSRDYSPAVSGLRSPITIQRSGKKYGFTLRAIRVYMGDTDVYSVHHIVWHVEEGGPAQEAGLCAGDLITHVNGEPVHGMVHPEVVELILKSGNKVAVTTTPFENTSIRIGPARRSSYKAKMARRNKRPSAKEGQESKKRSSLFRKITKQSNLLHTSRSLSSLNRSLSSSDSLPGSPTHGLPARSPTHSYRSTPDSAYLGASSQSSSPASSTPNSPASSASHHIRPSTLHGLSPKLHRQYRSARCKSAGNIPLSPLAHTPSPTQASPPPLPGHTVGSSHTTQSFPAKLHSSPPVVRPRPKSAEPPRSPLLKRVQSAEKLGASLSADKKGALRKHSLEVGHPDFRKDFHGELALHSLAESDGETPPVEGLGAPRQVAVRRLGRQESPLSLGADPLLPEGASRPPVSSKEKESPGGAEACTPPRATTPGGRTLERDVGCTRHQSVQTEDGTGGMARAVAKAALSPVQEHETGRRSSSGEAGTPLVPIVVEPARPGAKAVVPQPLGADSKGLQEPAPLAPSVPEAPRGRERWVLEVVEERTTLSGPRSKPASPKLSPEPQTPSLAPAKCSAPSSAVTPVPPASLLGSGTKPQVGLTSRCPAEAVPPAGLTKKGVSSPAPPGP
# In short: as §1
# [6] = molecular target: T3, PIK3CA(I800L) (Homo sapiens, UniProt P42336, I800L); settings: read-out: % control
# T3 construct: purchased KinomeScan® (panel service)
# T3 sequence (P42336 whole entry I800L): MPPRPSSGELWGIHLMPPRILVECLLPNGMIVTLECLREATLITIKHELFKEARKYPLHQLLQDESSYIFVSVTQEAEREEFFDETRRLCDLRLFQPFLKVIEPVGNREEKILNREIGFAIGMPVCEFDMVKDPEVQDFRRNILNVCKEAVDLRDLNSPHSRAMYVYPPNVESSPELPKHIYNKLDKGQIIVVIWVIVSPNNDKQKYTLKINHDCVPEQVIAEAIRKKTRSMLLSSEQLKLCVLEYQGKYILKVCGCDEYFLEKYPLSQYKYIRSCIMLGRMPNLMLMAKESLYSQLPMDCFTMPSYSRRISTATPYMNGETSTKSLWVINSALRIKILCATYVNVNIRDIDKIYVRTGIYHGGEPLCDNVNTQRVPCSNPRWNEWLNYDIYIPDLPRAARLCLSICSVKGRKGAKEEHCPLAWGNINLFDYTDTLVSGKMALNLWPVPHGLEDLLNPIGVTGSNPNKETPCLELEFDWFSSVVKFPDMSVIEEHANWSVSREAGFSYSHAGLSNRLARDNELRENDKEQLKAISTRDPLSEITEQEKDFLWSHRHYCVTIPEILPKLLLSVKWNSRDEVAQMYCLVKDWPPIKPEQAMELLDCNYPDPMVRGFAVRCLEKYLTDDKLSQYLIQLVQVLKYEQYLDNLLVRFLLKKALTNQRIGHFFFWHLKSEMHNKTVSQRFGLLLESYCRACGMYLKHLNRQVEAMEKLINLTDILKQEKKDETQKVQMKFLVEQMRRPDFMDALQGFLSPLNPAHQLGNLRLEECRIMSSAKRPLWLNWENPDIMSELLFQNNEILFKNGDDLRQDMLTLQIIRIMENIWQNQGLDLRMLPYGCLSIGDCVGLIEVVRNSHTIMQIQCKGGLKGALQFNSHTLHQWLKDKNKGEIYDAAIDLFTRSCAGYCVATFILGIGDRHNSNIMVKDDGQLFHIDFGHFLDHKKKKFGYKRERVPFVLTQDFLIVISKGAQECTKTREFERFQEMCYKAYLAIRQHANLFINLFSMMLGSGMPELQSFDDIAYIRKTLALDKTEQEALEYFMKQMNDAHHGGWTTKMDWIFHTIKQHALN
# In short: as §1
# [7] = molecular target: PKN1 (Homo sapiens, UniProt Q16512); settings: PKN1, 1 μM; read-out: % control
# PKN1, sequence (Q16512 whole entry): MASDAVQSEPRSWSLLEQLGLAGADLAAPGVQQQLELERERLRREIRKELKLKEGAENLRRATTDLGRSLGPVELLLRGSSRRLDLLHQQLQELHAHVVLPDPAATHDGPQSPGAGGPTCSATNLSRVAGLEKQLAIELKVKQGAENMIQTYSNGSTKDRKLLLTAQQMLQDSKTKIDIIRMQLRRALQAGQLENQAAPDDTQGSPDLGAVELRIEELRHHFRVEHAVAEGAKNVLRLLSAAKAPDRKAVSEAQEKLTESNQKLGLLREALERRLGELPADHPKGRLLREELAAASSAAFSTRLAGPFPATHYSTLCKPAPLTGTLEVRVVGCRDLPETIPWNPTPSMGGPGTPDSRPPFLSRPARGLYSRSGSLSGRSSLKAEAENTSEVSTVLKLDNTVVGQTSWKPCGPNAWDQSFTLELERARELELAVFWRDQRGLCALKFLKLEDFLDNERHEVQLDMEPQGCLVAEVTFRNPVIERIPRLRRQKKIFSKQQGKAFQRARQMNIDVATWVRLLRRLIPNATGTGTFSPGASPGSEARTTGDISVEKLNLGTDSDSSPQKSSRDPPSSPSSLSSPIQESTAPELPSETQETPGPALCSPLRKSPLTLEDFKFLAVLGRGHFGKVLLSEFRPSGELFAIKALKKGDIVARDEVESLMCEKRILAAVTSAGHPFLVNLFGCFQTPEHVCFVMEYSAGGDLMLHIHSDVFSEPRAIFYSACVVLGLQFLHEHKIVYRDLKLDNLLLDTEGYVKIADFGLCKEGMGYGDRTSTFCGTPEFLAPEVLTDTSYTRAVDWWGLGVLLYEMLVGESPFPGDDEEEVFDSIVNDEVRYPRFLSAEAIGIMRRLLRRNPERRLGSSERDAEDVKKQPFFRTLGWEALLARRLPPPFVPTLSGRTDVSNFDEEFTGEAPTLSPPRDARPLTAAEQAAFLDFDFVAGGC
# In short: as §1
# [8] = molecular target: PRKR (Homo sapiens, UniProt P19525); settings: read-out: % control
# In short: as §1
# [9] = molecular target: T4, STK35 (Homo sapiens, UniProt Q8TDR2); settings: STK35, 1 μM; read-out: % control
# T4 construct: purchased KinomeScan® (panel service)
# In short: as §1
# [10] = molecular target: TRKC (Homo sapiens, UniProt Q16288); settings: read-out: % control
# In short: as §1
# [11] = molecular target: T5, TSSK3 (Homo sapiens, UniProt Q96PN8); settings: TSSK3, 1 μM; read-out: % control
# T5 sequence (Q96PN8 1-268): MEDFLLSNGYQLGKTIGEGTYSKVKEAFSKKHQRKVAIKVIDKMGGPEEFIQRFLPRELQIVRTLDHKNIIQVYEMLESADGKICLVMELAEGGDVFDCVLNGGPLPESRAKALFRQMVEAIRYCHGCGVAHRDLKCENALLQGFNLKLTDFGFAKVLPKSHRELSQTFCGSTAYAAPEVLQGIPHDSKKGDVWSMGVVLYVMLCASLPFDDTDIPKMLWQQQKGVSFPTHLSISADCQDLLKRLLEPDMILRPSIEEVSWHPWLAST
# In short: as §1
# [12] = molecular target: YANK2 (Homo sapiens, UniProt Q9NY57); settings: YANK2, 1 μM; read-out: % control
# YANK2, sequence (Q9NY57 whole entry): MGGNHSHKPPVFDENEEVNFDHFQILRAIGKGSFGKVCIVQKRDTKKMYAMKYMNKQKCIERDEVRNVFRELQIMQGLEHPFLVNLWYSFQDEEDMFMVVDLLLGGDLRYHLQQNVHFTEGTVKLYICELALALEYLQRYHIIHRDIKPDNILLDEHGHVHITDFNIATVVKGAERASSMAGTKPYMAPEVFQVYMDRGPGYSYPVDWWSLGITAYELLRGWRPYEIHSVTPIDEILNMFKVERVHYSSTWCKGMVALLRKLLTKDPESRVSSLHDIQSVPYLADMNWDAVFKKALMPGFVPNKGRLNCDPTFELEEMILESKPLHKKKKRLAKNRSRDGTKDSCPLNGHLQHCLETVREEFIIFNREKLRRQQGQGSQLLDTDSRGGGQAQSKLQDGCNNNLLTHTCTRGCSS
# In short: as §1
# [13] = molecular target: YSK1 (Homo sapiens, UniProt O00506); settings: YSK1, 1 μM; read-out: % control
# YSK1, sequence (O00506 whole entry): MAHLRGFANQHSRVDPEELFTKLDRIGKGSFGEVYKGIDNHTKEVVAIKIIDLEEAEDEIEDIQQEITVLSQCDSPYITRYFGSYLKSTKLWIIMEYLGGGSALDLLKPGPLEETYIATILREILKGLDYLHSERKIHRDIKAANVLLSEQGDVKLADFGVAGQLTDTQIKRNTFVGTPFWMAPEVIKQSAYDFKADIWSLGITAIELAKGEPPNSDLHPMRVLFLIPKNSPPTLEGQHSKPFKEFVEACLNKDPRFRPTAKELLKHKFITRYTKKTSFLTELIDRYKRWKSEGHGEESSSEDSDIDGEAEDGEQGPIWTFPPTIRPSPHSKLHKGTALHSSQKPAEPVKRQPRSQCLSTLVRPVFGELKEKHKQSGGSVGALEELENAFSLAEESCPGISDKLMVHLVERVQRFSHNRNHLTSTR
# In short: as §1
# CDK7, sequence (P50613 whole entry): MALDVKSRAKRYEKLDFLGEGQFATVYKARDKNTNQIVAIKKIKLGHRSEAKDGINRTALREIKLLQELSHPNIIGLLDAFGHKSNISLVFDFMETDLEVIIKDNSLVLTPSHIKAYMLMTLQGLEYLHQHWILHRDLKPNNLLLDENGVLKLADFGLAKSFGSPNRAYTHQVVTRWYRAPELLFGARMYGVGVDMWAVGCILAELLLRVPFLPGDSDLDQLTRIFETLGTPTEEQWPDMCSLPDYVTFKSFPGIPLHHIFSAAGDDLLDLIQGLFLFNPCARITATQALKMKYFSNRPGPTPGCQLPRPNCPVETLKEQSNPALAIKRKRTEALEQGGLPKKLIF
Structure (SMILES),remaining binding at 1 µM [1],remaining binding at 1 µM [2],remaining binding at 1 µM [3],remaining binding at 1 µM [4],remaining binding at 1 µM [5],remaining binding at 1 µM [6],remaining binding at 1 µM [7],remaining binding at 1 µM [8],remaining binding at 1 µM [9],remaining binding at 1 µM [10],remaining binding at 1 µM [11],remaining binding at 1 µM [12],remaining binding at 1 µM [13]
"CNc1c(-c2ccc(C(=O)N3CCC(N4CCOCC4)CC3)cc2)cnc2[nH]cc(Cl)c12 [Compound 96, (4-(3-chloro-4-(methylamino)-1H-pyrrolo[2,3-b]pyridin-5-yl)phenyl)(4-morpholinopiperidin-1-yl)methanone]",90%,92%,12%,33%,24%,64%,95%,70%,50%,82%,45%,100%,97%
"O=C(c1ccc(-c2cnc3[nH]cc(Cl)c3c2NC2CCCC2)cc1)N1CCC(N2CCOCC2)CC1 [Compound 101, (4-(3-chloro-4-(cyclopentylamino)-1H-pyrrolo[2,3-b]pyridin-5-yl)phenyl)(4-morpholinopiperidin-1-yl)methanone]",93%,70%,100%,51%,70%,80%,100%,82%,99%,100%,98%,100%,100%
"CNc1c(-c2cnn([C@H]3CCN(C(C)=O)C[C@@H]3F)c2)cnc2[nH]cc(Cl)c12 [Compound 77, 1-((3S,4S)-4-(4-(3-chloro-4-(methylamino)-1H-pyrrolo[2,3-b]pyridin-5-yl)-1H-pyrazol-1-yl)-3-fluoropiperidin-1-yl)ethan-1-one]",94%,94%,49%,21%,50%,566%,100%,68%,63%,51%,65%,100%,84%

# — patent US12275731B2, “Azaindole inhibitors of wild-type and mutant forms of LRRK2” (DANA-FARBER CANCER INSTITUTE, INC., priority 2018, dated 2025)
